Data: patent US7745465B2, “Method of enhancing cellular production of molecular chaperone, hydroxylamine derivatives useful for enhancing the chaperone production and the preparation thereof” (CytRx Corporation, priority 1995, dated 2010)

Legend:
HSP72 = assay: Heat stress induced HSP72 production in 3T3 cells; format: cell-based, mouse; details: 10^−5 M
Protocol: From the applied cells the 3T3 and L-929 mouse fibroblasts were cultured in MEM medium and grew in monolayer, the U-937 human leukemia cells were maintained in RPMI-1640 medium, in suspension culture, while the HeLa human epithelial cells were cultured in DMEM medium and in monolayer form. Cell cultures were maintained as described in example 6.2 (a) with the difference that cells were cultured in the above mentioned culture mediums.
Experiments were carried out applying stress before and after the drug treatment. Stress was provoked by heat, by chemical agent, HgCl2 treatment. The test compounds were applied in the treatments at the 10^−5 M concentration.
The experiments on 3T3 cell applying heat stress were performed as described in the 6.2. (c) point of example 6, with the difference that stress was induced by a 30 min. exposure at 43° C. temperature and treatment with the test compounds was performed 15 min. before or 100 min. after the heat stress.
Immunodetection was carried out using the HSP72 specific SPA 810 (StressGene) primary and the horse-radish peroxidase conjugated A9044 (Sigma) secondary antibodies. Densitometric evaluation was performed by a LKB Ultrascan XL densitometer.

Male Sprague-Dawley rats = assay: Protection against cardiac ischaemia: survival after 5 minutes coronary occlusion and reperfusion; format: in vivo, rat; details: i.v. 1 mg/kgbw, 5 min. before the occlusion; non-treated control 10
Protocol: Male Sprague-Dawley rats (380-450 g b.w.) were anaesthetized with sodiumpentobarbital (Nembutal 60 mg/kg body weight, i.p.) and artificially ventilated with room air (2 ml/100 g; 54 stroke/minutes) via tracheotomy. The right carotid artery was catheterized and connected to a pressure transducer (BPR-01, Stoelting) for the measurement of systemic arterial blood pressure (BP) by means of a preamplifier (Hg-02, Experimetria). Hydroxylamine derivatives disclosed in Example 5 were administered via the venous cannule to jugular vein (i.v.) and orally (p.o.). Heart rate (HR) was measured by a cardiotachometer (HR-01, Experimetria). The electrocardiogram (ECG standard lead II) was recorded on a devices recorder (MR-12, Medicor) by means of subcutaneous steel needles electrodes. The chest was opened by a left thoracotomy and the heart was exteriorized by a gentle pressure on the right side of the rib cage. A 4-0 silk suture was quickly placed under the main left coronary artery as described by Selye et al. (1960). The heart was carefully replaced in the chest and the animal left to recover. Rectal temperature was monitored and kept constant at 37 C. The experimental protocol was initiated with a 15 minute stabilization period during which the observation of a sustained blood pressure less than 70 mmHg and or the occurrence of anhythmia led to exclusion. Myocardial ischemia was induced with coronary occlusion for 5 minutes and reperfusion allowed for 10 minutes.
During the entire experiment BP, HR and ECG were continuously registered on a multiscriptor (R61-6CH, Medicor). Hydroxylamine derivatives, the tautomeric forms of which are represented by structures (I) and (II), were administered 5 to 60 minutes before the occlusion after i.v. and p.o. treatment, respectively. […]
The mean duration of ventricular tachycardia (VT) and/or ventricular fibrillation (VF) during the first 3 minutes of reperfusion was analyzed by one-way analysis of variance. The incidence of VF was analyzed using a chi-square test. […] The haemodynamic variables were analyzed using Student's “t”-test. The critical level of significance was set at p<0.05. All results were expressed as a means±S.E.M. Drugs were administered i.v. in a dose of 1 mg/kgbw 5 min. before the occlusion.
The hydroxylamine derivatives that are found to be particularly advantageous for protecting an animal against ischemic/reperfusion injury are listed below. Survival (%) indicates the percent of animals survived the effects of 5 minutes coronary occlusion.

[1] = treatment 15 min. before 30 min. 43° C. heat stress

Molecule: Cl.c1ccc(C2=NOCC(CN3CCCCC3)O2)cc1 (stereo not drawn) [3-phenyl-5-[(1-piperidinyl)-methyl]-5,6-dihydro-6H-1,4,2-dioxazine hydrochloride]
- HSP72 level relative to the stress exposed control (HSP72; [1]): ++ (51-100%)

Molecule: Cl.OC(CON(C(=Nc1ccccc1)c1ccccc1)c1ccccc1)CN1CCCCC1 (stereo not drawn) [Example 73]
- HSP72 level relative to the stress exposed control (HSP72; [1]): 0 (0 indicates that the treatment altered by ±20% the stress induced hsp72 level in the cells)

Molecule: CC(C)(C)NCC(O)CONC(=N)c1cccc(C(F)(F)F)c1.Cl.Cl (stereo not drawn) [Example 47, N-[3-[(1,1-dimethylethyl)amino]-2-hydroxypropoxy]-3-trifluoromethyl-benzenecarboximidamide dihydrochloride]
- Survival (%) (Male Sprague-Dawley rats): 100%

Molecule: CCN(CC)CC(O)CON=C(Cl)c1cccnc1.Cl (stereo not drawn) [N-[2-hydroxy-3-(diethyl-amino)-propoxy]-3-pyridincarboximidoyl chloride hydrochloride (1:1)]
- Survival (%) (Male Sprague-Dawley rats): 62%

Molecule: COC(=NOCCCN1CCCCC1)c1cccnc1.O=C(O)/C=C\C(=O)O [Methyl-{N-[3-(1-piperidinyl)-propoxy]}-3-pyridine-carboximidate maleate]
- HSP72 level relative to the stress exposed control (HSP72; [1]): 0 (0 indicates that the treatment altered by ±20% the stress induced hsp72 level in the cells)

Molecule: Cl.OC(CON=C(Cl)c1cccc(C(F)(F)F)c1)CN1CCCCC1 (stereo not drawn) [Example 13, N-[2-hydroxy-3-(1-piperidinyl)propoxy]-3-trifluoromethyl-benzenecarboximidoyl chloride monohydrochloride]
- Survival (%) (Male Sprague-Dawley rats): 60%

Molecule: Cl.c1cncc(C(=NOCCCN2CCCCC2)N2CCCC2)c1 [N-[3-(I-piperidinyl)-propoxy]-N′-tetramethylene-3-pyridine-carboxamidine hydrochloride]
- HSP72 level relative to the stress exposed control (HSP72; [1]): +++ (>100%)

Molecule: CC(C)(C)NC(=O)NOCC(O)CN1CCCCC1 (stereo not drawn) [Example 62, N-tert-butyl-N′-[(2-hydroxy-3-(1-piperidinyl)propoxy)]-urea]
- Survival (%) (Male Sprague-Dawley rats): 57%

Molecule: CC(C)(C)NCC(O)CON=C(Cl)c1cccnc1.O=C(O)/C=C\C(=O)O (stereo not drawn) [N-[2-hydroxy-3-(tert-butyl-amino)-propoxy]-3-pyridincarboxamidoyl chloride (Z)-2-butendioate (1:1)]
- Survival (%) (Male Sprague-Dawley rats): 57%

Molecule: N-(2-hydroxy-3-piperidino-propoxy)-ethylurethane
- HSP72 level relative to the stress exposed control (HSP72; [1]): + (21-50%)

Molecule: Cl.Cl.N=C(NOCC(O)CN1CCCCC1)c1cnc2ccccc2c1 (stereo not drawn) [Example 42]
- HSP72 level relative to the stress exposed control (HSP72; [1]): +++ (>100%)
- HSP72 level relative to the stress exposed control (HSP72; treatment 100 min. after 30 min. 43° C. heat stress): +++ (>100%)

Molecule: O=C(O)/C=C\C(=O)O.OC(CON=C(Cl)c1cccnc1)CN1CCCCC1 (single isomer, unassigned; (-)) [(−)N-[2-hydroxy-3-(1-piperidinyl)-propoxy]-3-pyridine-carboximidoyl-chloride-(Z)-2-butenedioate(1:1)]
- HSP72 level relative to the stress exposed control (HSP72; [1]): +++ (>100%)

Molecule: N=C(NOCC(CN1CCCCC1)OC(=O)c1ccccc1)c1cccnc1.O=C(O)/C=C\C(=O)O (stereo not drawn) [Example 20, N-[2-benzoyloxy-3-(1-piperidinyl)propoxy]-3-pyridinecarboximidamide (Z)-2-butenedioate (1:1)]
- Survival (%) (Male Sprague-Dawley rats): 100%

Molecule: N-[2-hydroxy-3-(1-piperidinyl)-propoxy]-benzylurethane
- HSP72 level relative to the stress exposed control (HSP72; [1]): 0 (0 indicates that the treatment altered by ±20% the stress induced hsp72 level in the cells)

Molecule: CC(=O)OC(CONC(=O)NC1CCCCC1)CN1CCCCC1.Cl (stereo not drawn) [N-cyclohexyl-N′-[2-acetoxy-3-(1-piperidinyl)-propoxy]-urea hydrochloride]
- HSP72 level relative to the stress exposed control (HSP72; [1]): 0 (0 indicates that the treatment altered by ±20% the stress induced hsp72 level in the cells)

Molecule: Cl.OC(CON=C(Cl)c1ccco1)CN1CCCCC1 (stereo not drawn) [Example 7, N-[2-hydroxy-3-(1-piperidinyl)propoxy]-2-furanecarboximidoyl chloride monohydrochloride]
- Survival (%) (Male Sprague-Dawley rats): 80%

Molecule: COc1ccc(CC(Cl)=NOCC(O)CN2CCCCC2)cc1OC (stereo not drawn) [N-[2-hydroxy-3-(1-piperidyl)-propoxy]-∀-(3,4-dimethoxy-phenyl)-acetimidoyl chloride]
- Survival (%) (Male Sprague-Dawley rats): 67%

Molecule: CN(C)C(=NOCCCN1CCCCC1)Nc1ccccc1.Cl [N,N-dimethyl-N′-phenyl-N″-[3-(1-piperidinyl)-propoxy]-guanidine hydrochloride]
- HSP72 level relative to the stress exposed control (HSP72; [1]): ++ (51-100%)

Molecule: CCCNC(=O)NOCC(O)CN1CCCCC1 (stereo not drawn) [Example 56, N-[2-hydroxy-3-(1-piperidinyl)propoxy]-N′-propyl-urea]
- HSP72 level relative to the stress exposed control (HSP72; [1]): +++ (>100%)

Molecule: CN(C)C(=Nc1ccccc1)NOCC(O)CN1CCCCC1.Cl (stereo not drawn) [Example 71, N,N-dimethyl-N′-[2-hydroxy-3-(1-piperidinyl)-propoxy]-N″-phenyl-guanidine hydrochloride]
- HSP72 level relative to the stress exposed control (HSP72; [1]): 0 (0 indicates that the treatment altered by ±20% the stress induced hsp72 level in the cells)

Molecule: O=C(O)/C=C\C(=O)O.OC(CON=C(Cl)c1cccnc1)CN1CCOCC1 (stereo not drawn) [N-[2-hydroxy-3-(morpholin-1-yl-propoxy]-3-pyridincarboxamidoyl chloride (Z)-2-butendioate (1:1)]
- Survival (%) (Male Sprague-Dawley rats): 71%

Molecule: O=C(O)/C=C\C(=O)O.OC(CON=C(Cl)c1cccnc1)CN1CCCC1 (stereo not drawn) [N-[2-hydroxy-3-(pyrrolidin-1-yl)-propoxy]-3-pyridincarboximidoyl chloride (Z)-2-butendioate (1:1)]
- Survival (%) (Male Sprague-Dawley rats): 67%

Molecule: O=C(NOCC(O)CN1CCCCC1)Nc1cccc([N+](=O)[O-])c1 (stereo not drawn) [Example 63, N-(3-nitro-phenyl)-N′-[(2-hydroxy-3-(1-piperidinyl)propoxy)]-urea]
- Survival (%) (Male Sprague-Dawley rats): 50%

Molecule: CCCCCCNC(=O)N(C)OCCCN1CCCCC1 [N-[3-(I-piperidinyl)-propoxy]-N-methyl-N′-(n-hexyl)-urea]
- HSP72 level relative to the stress exposed control (HSP72; [1]): 0 (0 indicates that the treatment altered by ±20% the stress induced hsp72 level in the cells)

Molecule: CC(C)NCC(O)CON=C(Cl)c1cccnc1.O=C(O)/C=C\C(=O)O (stereo not drawn) [N-[2-hydroxy-3-prop-2-yl-amino)-propoxy]-3-pyridincarboximidoyl chloride (Z)-butendioate (1:1)]
- Survival (%) (Male Sprague-Dawley rats): 60%

Molecule: O=C(O)/C=C\C(=O)O.c1cncc(C2=NOCC(CN3CCCCC3)O2)c1 (stereo not drawn) [3-(3-piridyl)-5-[(1-piperidinyl)-methyl]-5,6-dihydro-6H-1,4,2-dioxazine-(Z)-2-butenedioate(1:1)]
- HSP72 level relative to the stress exposed control (HSP72; [1]): ++ (51-100%)

Molecule: CC(C)NCC(O)CON=C(Cl)c1cccc(C(F)(F)F)c1.Cl (stereo not drawn) [Example 10, N-[2-hydroxy-3-[(1-methylethyl)amino]propoxy]-3-trifluoromethyl-benzene-carboximidoyl chloride monohydrochloride]
- Survival (%) (Male Sprague-Dawley rats): 67%

Molecule: COC(=NOCC(O)CN1CCCCC1)c1cccnc1.O=C(O)/C=C\C(=O)O (stereo not drawn) [Example 66, Methyl-N-[2-hydroxy-3-(1-piperidinyl)propoxy]-3-pyridinecarboximidate (Z)-2-butenedioate (1:1)]
- Survival (%) (Male Sprague-Dawley rats): 57%

Molecule: CN(OCCCN1CCCCC1)C(=O)c1cccc(C(F)(F)F)c1.Cl [N-methyl-N-[3-(1-piperidinyl)-propoxy]-m-trifluoromethyl-benzamide hydrochloride]
- HSP72 level relative to the stress exposed control (HSP72; [1]): +++ (>100%)
